Results published in ChEMBL document CHEMBL1201862, “PubChem BioAssay data set” (2004).
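Where inhibition never reached the appropriate level, the endpoint shown equals the highest concentration tested. Otherwise, values were interpolated linearly from a five-concentration, 48-hour dose response in 96-well plates. Abbreviation: GI50, concentration required for 50% inhibition of growth.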 Activity calls are given as the source filed them. Rule as the data show it: active = GI50 up to about 1.1 µM and inactive = higher.

Assays:
Assay in all cases: NCI-60 cell line screen, 48 h
RXF 393 = system: RXF 393
UO-31 = system: UO-31
MOLT-4 = system: MOLT-4
PC-3 = system: PC-3
SNB-19 = system: SNB-19
COLO 205 = system: COLO 205
HCT-15 = system: HCT-15
OVCAR-4 = system: OVCAR-4
OVCAR-8 = system: OVCAR-8
CAKI-1 = system: CAKI-1
T47D = system: T47D
786-0 = system: 786-0
CCRF-CEM = system: CCRF-CEM
MDA-MB-231 = system: MDA-MB-231
LOX IMVI = system: LOX IMVI
MDA-MB-435 = system: MDA-MB-435
SNB-75 = system: SNB-75
UACC-62 = system: UACC-62
BT-549 = system: BT-549
SR = system: SR
HCT-116 = system: HCT-116
NCI-H522 = system: NCI-H522
ACHN = system: ACHN
IGROV-1 = system: IGROV-1
SN12C = system: SN12C
SK-MEL-5 = system: SK-MEL-5
HL-60 = system: HL-60
MDA-N = system: MDA-N
RPMI-8226 = system: RPMI-8226
UACC-257 = system: UACC-257
SK-OV-3 = system: SK-OV-3
SK-MEL-28 = system: SK-MEL-28
K562 = system: K562
NCI-H226 = system: NCI-H226
U-251 = system: U-251
Hs-578T = system: Hs-578T
OVCAR-3 = system: OVCAR-3
MCF7 = system: MCF7
OVCAR-5 = system: OVCAR-5
NCI/ADR-RES = system: NCI/ADR-RES
SK-MEL-2 = system: SK-MEL-2
HT-29 = system: HT-29
DU-145 = system: DU-145
KM12 = system: KM12
NCI-H460 = system: NCI-H460
NCI-H23 = system: NCI-H23
A549 = system: A549
SF-295 = system: SF-295
TK-10 = system: TK-10
EKVX = system: EKVX
SW-620 = system: SW-620
A498 = system: A498
M14 = system: M14
SF-268 = system: SF-268
SF-539 = system: SF-539
HOP-62 = system: HOP-62
Malme-3M = system: Malme-3M
HCC 2998 = system: HCC 2998
HOP-92 = system: HOP-92

Measured: GI50

CCCCCCCCCCCCCCCC(=O)Nc1ccn(C2CC(OP(=O)(O)OCC3OC(n4cc(F)c(=O)[nH]c4=O)CC3OC(C)=O)C(CO)O2)c(=O)n1 (stereo not drawn)
14.7 µM: HCT-15
active: UO-31 0.565 µM | SR 1 µM | ACHN 0.128 µM | NCI-H460 0.0664 µM | A549 0.836 µM | SF-268 0.528 µM | SF-539 0.07 µM | HOP-62 0.351 µM
inactive: RXF 393 > 41 µM | MOLT-4 7.55 µM | PC-3 7.87 µM | SNB-19 2.73 µM | COLO 205 18.3 µM | OVCAR-4 44.7 µM | OVCAR-8 3.78 µM | CAKI-1 1.56 µM | T47D 20.8 µM | 786-0 6.47 µM | CCRF-CEM 3.18 µM | MDA-MB-231 > 43.4 µM | LOX IMVI 1.29 µM | MDA-MB-435 34.7 µM | SNB-75 13.7 µM | UACC-62 8.32 µM | BT-549 3.18 µM | HCT-116 3.84 µM | NCI-H522 9.04 µM | IGROV-1 23.9 µM | SN12C 6.03 µM | SK-MEL-5 11.5 µM | HL-60 3.94 µM | MDA-N 42.5 µM | RPMI-8226 3.81 µM | UACC-257 > 57.1 µM | SK-OV-3 > 21.2 µM | SK-MEL-28 30.5 µM | K562 13.3 µM | NCI-H226 31.2 µM | U-251 15.7 µM | Hs-578T 12.1 µM | OVCAR-3 > 53.2 µM | MCF7 > 100 µM | OVCAR-5 > 41.8 µM | NCI/ADR-RES 11.4 µM | SK-MEL-2 > 45.1 µM | HT-29 7.62 µM | DU-145 3.61 µM | KM12 15 µM | NCI-H23 3.86 µM | SF-295 1.81 µM | TK-10 > 64 µM | EKVX > 61.2 µM | SW-620 22.9 µM | A498 > 35 µM | M14 11.4 µM

COc1cc2nc(-c3ccccc3)cc(O)c2c(OC)c1OC
> 100 µM: HCT-15
inactive: RXF 393 > 100 µM | UO-31 98.4 µM | MOLT-4 > 100 µM | PC-3 > 100 µM | SNB-19 > 100 µM | COLO 205 > 100 µM | OVCAR-4 > 100 µM | OVCAR-8 > 100 µM | T47D 34.1 µM | 786-0 > 100 µM | Malme-3M > 100 µM | CCRF-CEM > 100 µM | MDA-MB-231 61 µM | LOX IMVI > 100 µM | MDA-MB-435 > 100 µM | SNB-75 > 100 µM | UACC-62 > 100 µM | BT-549 > 100 µM | SR > 100 µM | HCT-116 > 100 µM | NCI-H522 > 100 µM | ACHN > 100 µM | IGROV-1 > 100 µM | SN12C > 100 µM | SK-MEL-5 > 100 µM | HL-60 > 100 µM | MDA-N > 100 µM | RPMI-8226 > 100 µM | UACC-257 > 100 µM | SK-OV-3 > 100 µM | SK-MEL-28 > 100 µM | K562 > 100 µM | NCI-H226 > 100 µM | U-251 > 100 µM | Hs-578T > 100 µM | OVCAR-3 > 100 µM | MCF7 67.1 µM | OVCAR-5 > 100 µM | NCI/ADR-RES > 100 µM | SK-MEL-2 > 100 µM | HCC 2998 > 100 µM | HT-29 > 100 µM | DU-145 > 100 µM | KM12 > 100 µM | NCI-H460 > 100 µM | NCI-H23 > 100 µM | A549 > 100 µM | SF-295 > 100 µM | TK-10 > 100 µM | EKVX > 100 µM | SW-620 > 100 µM | A498 > 100 µM | M14 > 100 µM | SF-268 > 100 µM | HOP-62 > 100 µM

O=C(O)Cn1ccc(=O)c2ccc([N+](=O)[O-])cc21
inactive: UO-31 > 100 µM | MOLT-4 > 100 µM | PC-3 > 100 µM | SNB-19 > 100 µM | COLO 205 > 100 µM | OVCAR-8 > 100 µM | CAKI-1 > 100 µM | T47D > 100 µM | 786-0 > 100 µM | Malme-3M > 100 µM | CCRF-CEM > 100 µM | MDA-MB-231 28.8 µM | MDA-MB-435 > 100 µM | SNB-75 38.4 µM | UACC-62 > 100 µM | BT-549 > 100 µM | SR > 100 µM | HCT-116 > 100 µM | NCI-H522 > 100 µM | ACHN > 100 µM | IGROV-1 > 100 µM | SN12C > 100 µM | SK-MEL-5 > 100 µM | HL-60 > 100 µM | MDA-N > 100 µM | UACC-257 > 100 µM | SK-OV-3 > 100 µM | SK-MEL-28 > 100 µM | K562 > 100 µM | NCI-H226 > 100 µM | U-251 > 100 µM | Hs-578T > 100 µM | OVCAR-3 > 100 µM | MCF7 > 100 µM | OVCAR-5 > 100 µM | NCI/ADR-RES > 100 µM | SK-MEL-2 > 100 µM | HCC 2998 > 100 µM | HT-29 > 100 µM | DU-145 > 100 µM | KM12 > 100 µM | NCI-H460 > 100 µM | NCI-H23 > 100 µM | A549 > 100 µM | SF-295 > 100 µM | TK-10 > 100 µM | SW-620 > 100 µM | A498 > 100 µM | M14 > 100 µM | SF-268 > 100 µM | SF-539 > 100 µM | HOP-62 > 100 µM
> 100 µM: HCT-15

COc1ccc(/C=C2\CC3C4CC=C5C[C@@H](O)CC[C@]5(C)C4CC[C@]3(C)\C2=N\O)cc1OC (stereo partly drawn)
inactive: RXF 393 7.73 µM | UO-31 2.65 µM | MOLT-4 5.37 µM | PC-3 6.03 µM | SNB-19 70.6 µM | COLO 205 5.13 µM | OVCAR-4 5.02 µM | OVCAR-8 8.97 µM | CAKI-1 9.62 µM | T47D 3.35 µM | 786-0 5.71 µM | Malme-3M 33.3 µM | CCRF-CEM 18.2 µM | MDA-MB-231 16.2 µM | LOX IMVI 6.92 µM | HOP-92 29.2 µM | MDA-MB-435 23.3 µM | SNB-75 2.33 µM | UACC-62 10.3 µM | BT-549 15.1 µM | HCT-116 5.14 µM | NCI-H522 13.9 µM | ACHN 3.98 µM | IGROV-1 38.8 µM | SN12C 15.7 µM | SK-MEL-5 4.1 µM | HL-60 11.2 µM | MDA-N 14.1 µM | RPMI-8226 7.24 µM | UACC-257 7.94 µM | SK-OV-3 49.3 µM | SK-MEL-28 23 µM | K562 4.98 µM | NCI-H226 7.28 µM | U-251 9.2 µM | Hs-578T 8.77 µM | OVCAR-3 2.69 µM | MCF7 4.24 µM | OVCAR-5 16 µM | NCI/ADR-RES 9.18 µM | SK-MEL-2 7.57 µM | HCC 2998 7.13 µM | HT-29 9.02 µM | DU-145 26.1 µM | KM12 7.5 µM | NCI-H460 6.61 µM | NCI-H23 9.71 µM | A549 5.2 µM | SF-295 4.13 µM | TK-10 5.09 µM | EKVX 6 µM | SW-620 43.4 µM | A498 5.4 µM | M14 19.6 µM | SF-268 18.1 µM | SF-539 7.26 µM | HOP-62 18.2 µM
4.32 µM: HCT-15

COCC([C@@H](O)C(O)C(=O)NCC[C@@H](C)c1nc(/C=C/CC2OC3(C[C@H](O)C2C)OC(C(C[C@H](O)C(C)[C@H](O)C(C)/C=C(C)/C(C)=C/C=C/C(C)=C/C#N)OC)[C@@H](OP(=O)(O)O)C3(C)C)co1)N(C)C (stereo partly drawn)
0.000202 µM: HCT-15
active: UO-31 0.00118 µM | MOLT-4 0.00082 µM | PC-3 0.000179 µM | SNB-19 0.000195 µM | COLO 205 0.000171 µM | OVCAR-4 0.00137 µM | OVCAR-8 0.000208 µM | CAKI-1 0.000174 µM | T47D 0.000703 µM | 786-0 0.000176 µM | Malme-3M 0.000174 µM | MDA-MB-231 0.000242 µM | LOX IMVI 0.000245 µM | HOP-92 0.000175 µM | MDA-MB-435 0.000175 µM | SNB-75 0.000182 µM | UACC-62 0.000195 µM | BT-549 0.000167 µM | HCT-116 0.000177 µM | NCI-H522 0.000167 µM | ACHN 0.000199 µM | IGROV-1 0.000161 µM | SN12C 0.000179 µM | SK-MEL-5 0.000159 µM | HL-60 0.00048 µM | MDA-N 0.000191 µM | RPMI-8226 0.000272 µM | UACC-257 0.00105 µM | SK-OV-3 0.000474 µM | SK-MEL-28 0.000184 µM | K562 0.000296 µM | NCI-H226 0.00015 µM | U-251 0.000191 µM | Hs-578T 0.000196 µM | OVCAR-3 0.000186 µM | MCF7 0.000184 µM | OVCAR-5 0.000188 µM | NCI/ADR-RES 0.00107 µM | SK-MEL-2 0.000188 µM | HCC 2998 0.000185 µM | HT-29 0.000162 µM | DU-145 0.000182 µM | KM12 0.000184 µM | NCI-H460 0.000139 µM | NCI-H23 0.000762 µM | A549 0.0004 µM | SF-295 0.000184 µM | TK-10 0.000115 µM | EKVX 0.000172 µM | SW-620 0.000182 µM | A498 0.00188 µM | M14 0.000173 µM | SF-268 0.000192 µM | SF-539 0.000189 µM
